Experiment [1] concerns Il6, Csf3, Cxcl2 and Ccl5 expression in DC2.4 cells. The experiment is described as follows: qRT-PCR of Il6, Csf3, Cxcl2 and Ccl5 in DC2.4 cells. The class given is cell-based, C57BL/6. The following applies: for effect of ATRA on target gene expression: DC2.4, IL-33. Background: Quantitative PCR measures a nucleic acid by following its amplification.
Description: Also as indicated, some cells were pretreated for 3 days with 5 μM or 10 μM of ATRA before IL-33 induction. e Relative gene expression of Il6, Csf3, Cxcl2 and Ccl5 in the different samples as in d normalized to actin. f IRAK-M was stably expressed in pLKO or TET on shPin1 expressing cells, followed by induction with IL-33, before western blot to examine protein expression of IRAK-M, PIN1 and tubulin as well as g qRT-PCR to determine the relative gene expression for Il6, Csf3, Cxcl2 and Ccl5 in the different samples.
SYBR Green PCR Master Mix (Applied Biosystems, Foster City, CA) was used for two-step real-time RT-PCR analysis on an Applied Biosystems StepOnePlus Real Time PCR instrument. […] Expression value of the targeted gene in a given sample was normalized to the corresponding expression of Actin. The 2^–ΔΔCt method was used to calculate relative expression of the targeted genes.
In experiment [2] the test system is naive CD4^+ cells co-cultured with BMDCs. The experiment is described as follows: BMDC / naive CD4+ T cell co-culture TH2 polarization, IL-5 and IL-13 secretion. The following applies: ATRA 5 µM, two days prior to and during co-culture, IL-33 50 ng/ml. It is filed as cell-based, C57 B6 mice. As to the method: Supplementary Figure 7. IRAK-M KO or Pin1 KO derived bone marrow dendritic cells attenuates Naïve TH2 cell differentiation upon IL-33 induction in co culture experiment. Naïve CD4+ T cells isolated from C57 B6 mice were cultured with or without IL-33 (50ng/ml) and BMDCs isolated from WT, IRAK-M KO (a) or Pin1 KO mice (b) in a 1:5 ratio for 5 days with no antigen being added. In some cases as indicated 5 µM of ATRA was added to the medium two days prior to T cell co culturing and during the experiment. Supernatants were analyzed for cytokines on day 5. The data were analyzed by a Student's two-tailed t test and the values are reported as mean ± standard errors of the means (SEM). *- statistical significance (P<0.05), **- significance (P<0.01).

Another experiment relates to PIN1. In words: PIN1 expression in DC2.4 cells. To be noted: ATRA 5 or 10 μM, 3 days pretreatment, before IL-33, DC2.4. The class given is cell-based, C57BL/6.
In the next experiment the test system is IRAK-M. The experiment is described as follows: IRAK-M protein stability, cycloheximide chase. The class given is cell-based. The following applies: PIN1-deficient MEFs (text PIN1 KD, Fig. 4g legend PIN1 KO) co-expressing IRAK-M with PIN1 mutant. As for the experimental part:
Fig. 4 PIN1 increases IRAK-M protein stabilization. a After IRAK-M and GFP were coexpressed in WT and PIN1 KO MEFs for 24 h, cells were split equally into 5 dishes. […] The data were analyzed by a Student’s two-tailed t test and the values are reported as mean ± standard errors of the means (SEM). *- statistical significance (P < 0.05), **- significance (P < 0.01)

Take `CC1=C(/C=C/C(C)=C/C=C/C(C)=C/C(=O)O)C(C)(C)CCC1` [ATRA, all-trans retinoic acid]: the “target gene expression (Il6, Csf3, Cxcl2, Ccl5)” value in experiment [1] (ATRA, even at 5 µM, IRAK-M stably expressing DC2.4 cells, IL-33) is given as “inhibited target gene expression”. Also, the “effect of ATRA on target gene expression” value in experiment [1] (IRAK-M mutants S110E and P111A) was “highly attenuated”; in experiment [1] (P111A mutant, 10 µM ATRA), “completely abolished”; in experiment [1] (S110E mutant, 10 µM ATRA), “some reduction in gene expression still persisted”. In addition, in experiment [2], the “IL-33-induced IL-5 and IL-13 secretion, inhibition by ATRA” value is “significantly attenuated”. The PIN1 expression result with PIN1 is “reduced PIN1 expression”.

As to “K63A: PIN1 PPIase domain mutant K63A (catalytically inactive)”, the “effect on IRAK-M half-life” value in the experiment on IRAK-M is “neither binding nor isomerizing mutants had any effect”.

As for “W34A: PIN1 WW domain mutant W34A (binding defective)”, the “effect on IRAK-M half-life” value in the experiment on IRAK-M was “neither binding nor isomerizing mutants had any effect”.

For the origin of these results see PMC5913134, “The IL-33-PIN1-IRAK-M axis is critical for type 2 immunity in IL-33-induced allergic airway inflammation” (Nature Communications, 2018).
